Results from patent US20240277666A1, “Combination Treatments for Cancer Patients and Methods for Identifying Same” (Scandion Oncology A/S, priority 2021, published 2024).

Experiments:
UGT1A1 [1] = molecular target: T1, UGT1A1 (Homo sapiens, UniProt P22309); experiment: Clinical study of SCO-101 with FOLFIRI: serum bilirubin / bilirubin index as surrogate of UGT1A1 activity; assay type: in vivo; set-up: from tissue; host or cells: patients in vivo (enzyme primarily in the liver); conditions: for mean bilirubin index score (day 12 / day 7 bilirubin serum concentration): cohort 1 (150 mg SCO-101), cycle 1; for highest bilirubin index score / lowest bilirubin index score: cohort 1, cycle 1
T1 sequence (P22309 26-533): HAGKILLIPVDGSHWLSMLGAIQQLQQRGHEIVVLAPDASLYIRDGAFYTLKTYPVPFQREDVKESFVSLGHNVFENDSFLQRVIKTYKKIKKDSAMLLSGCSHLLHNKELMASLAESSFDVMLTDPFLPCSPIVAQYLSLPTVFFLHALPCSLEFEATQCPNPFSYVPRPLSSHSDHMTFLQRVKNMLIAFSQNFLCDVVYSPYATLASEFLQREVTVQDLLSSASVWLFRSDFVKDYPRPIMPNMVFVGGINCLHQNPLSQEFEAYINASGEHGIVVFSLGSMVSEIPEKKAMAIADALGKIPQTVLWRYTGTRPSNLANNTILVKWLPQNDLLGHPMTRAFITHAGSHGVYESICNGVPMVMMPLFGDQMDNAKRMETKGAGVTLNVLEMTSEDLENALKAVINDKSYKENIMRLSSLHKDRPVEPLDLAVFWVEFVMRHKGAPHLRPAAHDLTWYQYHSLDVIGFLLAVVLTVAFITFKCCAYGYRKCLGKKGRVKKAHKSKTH
Protocol: The term “bilirubin index” as used herein or “bilirubin index score” which are used interchangeably, refer to a patient's rate of bilirubin normalization subsequent to administration of an UGT1A1 inhibitor to the patient. Herein, the bilirubin index is determined subsequent to administration of an UGT1A1 inhibitor to the patient for a number of consecutive days, such as 1, 2, 3, 4, 5, or 6, preferably 6 days. In some embodiments, based on 6 consecutive days of administration with an UGT1A1 inhibitor, the bilirubin index can be determined as the bilirubin serum concentration (unconjugated or total bilirubin) on day 12 divided with the bilirubin serum concentration on day 7 and thus is an indicator of how much the patients' UGT1A1 activity has normalized following cessation of treatment with the UGT1A1 inhibitor, such as SCO-101, and can be determined using bilirubin as a surrogate marker. Based on 6 consecutive days of administration with an UGT1A1 inhibitor, the bilirubin index is determined as the bilirubin serum concentration (unconjugated or total bilirubin) on day 12 divided with the bilirubin serum concentration on day 7 and thus is an indicator of how much the patients' UGT1A1 activity has normalized following cessation of SCO-101 treatment, and can be determined using bilirubin as a surrogate marker. In some embodiments, the bilirubin index is determined by comparison on bilirubin serum concentrations obtained from other days than day 7 and day 12. The bilirubin index is also referred to herein as the CT2/CT1 ratio, wherein CT1 is the plasma concentration of unconjugated bilirubin in the patient at a time point T1, whereas CT2 is the plasma concentration of unconjugated bilirubin in the patient at a time point T2 which is after discontinuing administration of the UGT1A1 inhibitor.
Bilirubin: Blood sampling for analysis of bilirubin (total, unconjugated and conjugated) were withdrawn at Screening (up to 4 weeks prior start of treatment), day 5, day 7 and day 12 in the first treatment cycle.
UGT1A1 is the primary enzyme responsible for conjugation of bilirubin and metabolism of Irinotecan's active metabolite SN-38.

UGT1A1 [2] = molecular target: T1, UGT1A1; experiment: in vitro UGT1A1 inhibition assay; assay type: biochemical; conditions: read-out: IC50 towards UGT1A1
From the text: The term “UGT1A1 inhibitor” as used herein refers to a molecule which is capable of binding to the enzyme uridine diphosphate (UDP)-glycuronosyl transferase (UGT1A1) and decrease the enzymatic activity of UGT1A1. The UGT1A1 enzyme, primarily found in the liver, is responsible for the gluronidation of bilirubin, converting it from the toxic form of bilirubin (unconjugated bilirubin) to its nontoxic, water-soluble form (conjugated bilirubin). Whether or not a particular molecule is an UGT1A1 inhibitor can be determined by examining the molecule's IC50 in vitro in common UGT1A1 inhibition assays. […] In one embodiment, the IC50 is 5 μM or less, such as 4 μM or less, such as 3 μM or less, such as 2 μM or less, for example between 0.1 μM and 2.0 μM. […] In some embodiments, the UGT1A1 inhibitor of the present disclosure is a non-competitive UGT1A1 inhibitor. In some embodiments, the UGT1A1 inhibitor is a competitive UGT1A1 inhibitor. In one embodiment, the UGT1A1 inhibitor is also SRPK1 inhibitor and/or an ABCG2 inhibitor.

SMILES: O=C(Nc1cc(C(F)(F)F)cc(C(F)(F)F)c1)Nc1ccc(Br)cc1-c1nnn[nH]1 [SCO-101]
- effect on unconjugated bilirubin serum concentration (UGT1A1 [1]; cancer patients, SCO-101 daily days 1-6): specific and dose dependent increase
- reversibility of UGT1A1 inhibition / bilirubin increase after discontinuation of SCO-101 (UGT1A1 [1]; cancer patients, blood bilirubin after last SCO-101 treatment): completely reversible
- bilirubin index of patients with RAS mutation (UGT1A1 [1]; cohort 1, cycle 1, day 12 / day 7): above 0.4
- mean bilirubin index score (day 12 / day 7 bilirubin serum concentration) (UGT1A1 [1]; six RAS mutated patients): 0.59
- highest bilirubin index score (UGT1A1 [1]; six RAS mutated patients): 0.76
- lowest bilirubin index score (UGT1A1 [1]; six RAS mutated patients): 0.25
- mean bilirubin index score (day 12 / day 7 bilirubin serum concentration) (UGT1A1 [1]; six RAS wild type patients): approximately 0.15
- highest bilirubin index score (UGT1A1 [1]; six RAS wild type patients): 0.28
- lowest bilirubin index score (UGT1A1 [1]; six RAS wild type patients): 0.04
- IC50 (UGT1A1 [2]): 700 to 1900 nM
